The values below come from patent publication US4233445A, “7-(Substituted)-7H-pyrrolo[3.2-F]-quinazoline-1,3-diamines” (American Home Products Corporation, priority 1979, dated 1980).

In brackets after ≈: the same amount, converted by molar mass.

The subject of assay [1] is S. aureus Smith. The experiment in a line: In vitro antibacterial activity (MIC), S. aureus Smith. In kind it is cell-based. As to conditions: agar dilution, 18 hours at 35° C. As to the method: (§1) The compounds have shown activity in vitro against one or more of the following strains of bacteria: S. aureus Smith, S. aureus 53-180, N. catarrhalis 8193, E. coli 9637, S. paratyphi 11737, K. pneumoniae 10031, or P. vulgaris 6896.
(§2) A stock solution or suspension of the test compound at a concentration of 2500 μg/ml. is prepared utilizing a suitable solvent or medium such as aqueous sodium hydroxide, aqueous lactic acid, methyl cellosolve, dimethylsulfoxide, dimethylacetamide, ethylene glycol, dimethylformamide, formamide, propylene glycol, acetone or methanol. Two-fold dilutions are made by adding appropriate amounts of sterile water to the solution or suspension of the test substance. One ml. quantities of each dilution are incorporated into Wellcotest Sensitivity Test Agar fortified with 5% hemolyzed horse blood (9 ml. vol.) in sterile Petri dishes to give plates containing varying concentrations of the test compound. The hardened surfaces of each plate are incubated with the test organism, and the plates are incubated for 18 hours at 35° C.

Assay [2] concerns S. paratyphi 11737. Briefly: In vitro antibacterial activity (MIC), S. paratyphi 11737. Particulars: agar dilution, 18 hours at 35° C. In kind it is cell-based. As for the experimental part:
as §1, §2
(In general: In agar dilution, organisms are placed on agar that contains the substance at set levels.)

In assay [3] the test system is S. aureus 53-180. Briefly: In vitro antibacterial activity (MIC), S. aureus 53-180. It is filed as cell-based. As to conditions: agar dilution, 18 hours at 35° C. As for the experimental part: as §1, §2
Assay [4] has as its system K. pneumoniae 10031. The experiment in a line: In vitro antibacterial activity (MIC), K. pneumoniae 10031. Particulars: agar dilution, 18 hours at 35° C. It is filed as cell-based. As for the experimental part:
as §1, §2

Assay [5] deals with N. catarrhalis 8193. Briefly: In vitro antibacterial activity (MIC), N. catarrhalis 8193. It is filed as cell-based. As to conditions: agar dilution, 18 hours at 35° C. As for the experimental part: as §1, §2
The subject of assay [6] is E. coli 9637. Briefly: In vitro antibacterial activity (MIC), E. coli 9637. In kind it is cell-based. As to conditions: agar dilution, 18 hours at 35° C. As to the method: as §1, §2
For assay [7], the system named is P. vulgaris 6896. Briefly: In vitro antibacterial activity (MIC), P. vulgaris 6896. It is filed as cell-based. Particulars: agar dilution, 18 hours at 35° C. As for the experimental part:
as §1, §2

Assay [8] deals with Staphylococcus aureus CHP. The experiment in a line: In vivo antibacterial synergism (mouse), Staphylococcus aureus CHP. Also on record: species or system Mice (male, CD-1 strain). As to conditions: p.o., at time of infection, Cpd. dose in combination with SM, 20160 min. As to the method:
(§3) The test agent is weighed, suspended in 0.5% aqueous carboxymethyl cellulose, hemogenized (glass tissue grinder) and diluted according to the design of the experiment. Mice (male, 18±1 g., CD-1 strain) are pre-weighed, pooled, infected at random intraperitoneally with a 0.5 ml. standardized suspension (LD95 ±5%) of the bacterial organism in 5% gastric mucin and treated at random with single doses of the test agents either at the time of infection or six hours after infecting. The treated groups consist of ten mice per dosage level. Deaths are recorded daily for 14 days and the PD50 (mice are treated at time of infection) and CD50 (mice are treated six hours after infecting) values are calculated by the method of Reed and Muench [Amer. J. Hyg., 27, (1938)].

Assay [9] has as its system Escherichia coli (E-3). The experiment in a line: In vivo antibacterial synergism (mouse), Escherichia coli (E-3). Also on record: species or system Mice (male, CD-1 strain). Particulars: p.o., at time of infection, Cpd. dose in combination with SM, 20160 min. As for the experimental part:
as §3

For assay [10], the system named is Escherichia coli (E-2). Briefly: In vivo antibacterial synergism (mouse), Escherichia coli (E-2). On the set-up: species or system Mice (male, CD-1 strain). As to conditions: p.o., at time of infection, Cpd. dose in combination with SM, 20160 min. As to the method:
as §3

`CC(C)c1cccc(Cn2ccc3c4c(N)nc(N)nc4ccc32)c1` [Example 5]: the “MIC (minimal inhibitory concentration)” value was 1.95 µg/mL (≈ 5.88 µM) in [1]; 31.3 µg/mL (≈ 94.4 µM) in assay [2]; 0.488 µg/mL (≈ 1.47 µM) in assay [3]; 0.244 µg/mL (≈ 0.736 µM) in assay [4]; 3.9 µg/mL (≈ 11.8 µM) in assay [5]; 7.81 µg/mL (≈ 23.6 µM) in [6]. Besides, in assay [7], the “MIC (minimal inhibitory concentration)” value was found to be 62.5 µg/mL (≈ 189 µM).

As to `COC(=O)c1ccc(Cn2ccc3c4c(N)nc(N)nc4ccc32)cc1` [Example 8], in assay [1] (Staphylococcus aureus, read-out: MIC (minimal inhibitory concentration)), the MIC amounted to 31.5 µg/mL (≈ 90.7 µM).

As for `Nc1nc(N)c2c(ccc3c2ccn3-c2ccncc2)n1` [Example 10, 7-(4-Pyridinyl)-7H-pyrrolo-[3,2-f]quinazoline-1,3-diamine], the “PD50, SM/Cpd. (Cpd. component)” value in assay [8] is on record as 7.28 mg. per kg; in [9], 6.25 mg. per kg; in assay [10], 1.20 mg. per kg.
